# According to patent US5391540A, “Substituted pyridine compounds” (Rohm and Haas Company, priority 1993, dated 1995):
# Legend:
# Wibw = experiment: plant injury after spraying emerged plants (Table D); type: in vivo; parameters: scale not given here
# Procedure, shortened: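 Seeds or perennial propagules were pressed onto steam-sterilized sieved silt loam topsoil and covered with 1.27 cm of a 50:50 topsoil and peat moss/vermiculite/wetting agent mix. Pans were kept on a greenhouse bench over capillary mat and subirrigated as needed.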
# Cocw = experiment: as above; type: in vivo; parameters: scale not given here
# Source text: Topsoil (silt loam) is sieved through a screen having 1.27 cm openings. In some of the tests the soil was mixed with fertilizer (1225 g/cu. m of 12/5/9 containing isobutylidene diurea), while in other tests the fertilizer was omitted. This mixture is steam sterilized and then placed in aluminum pans 6.985 cm deep having ten holes in the bottom each 0.635 cm in diameter. The soil mixture is compacted to a depth of 1.27 cm. from the top of the pan. A predetermined number of seeds of each of several dicotyledonous and monocotyledonous annual plant species and/or vegetative propagules for the perennial plant species are placed on the soil and pressed into the soil surface. The seeds and/or vegetative propagules are covered with 1.27 cm of a mixture of 50% topsoil and 50% of a mixture of Canadian sphagnum peat moss, vermiculite and a wetting agent. The pans are then placed on a capillary mat on a greenhouse bench and subirrigated as needed. After the plants reach the desired stage (9 to 14 days, 1 to 3 true leaf stage), each pan (except the control pans) is removed to a spraying chamber and sprayed by means of an atomizer, operating at a spray pressure of 170.3 kPa ([…]) at the application rates noted in Table D. In the spray solution is an amount of an emulsifying agent mixture (35% butylamine salt of dodecylbenzenesulfonic acid and 65% tall oil condensed with ethylene oxide in the ratio of 11 mols of ethylene oxide/mol of tall oil) to give a spray solution or suspension. The spray solution or suspension contains a sufficient amount of the candidate chemical in order to give application rates of the active ingredient corresponding to those shown in Table D below while applying a total amount of solution or suspension equivalent to 1870 L/Ha (200 gallons/acre). The pans are returned to the greenhouse and watered as before and the injury to the plants as compared to the control pans is observed at approximately 10-14 days (usually 11 days).
# In the following Table D the legends used to identify the plant species are the same as those used in the preceding Table B.
SMILES,"plant injury rating, Wibw (Wibw; 0.0701 kg/ha)","plant injury rating, Wibw (Wibw; 0.2803 kg/ha)","plant injury rating, Wibw (Wibw; 1.1210 kg/ha)","plant injury rating, Wibw (Wibw; 5.6050 kg/ha)","plant injury rating, Wibw (Wibw; 1.1219 kg/ha)","plant injury rating, Cocw (Cocw; 0.2803 kg/ha)","plant injury rating, Cocw (Cocw; 5.6050 kg/ha)","plant injury rating, Cocw (Cocw; 0.0701 kg/ha)","plant injury rating, Cocw (Cocw; 1.1210 kg/ha)"
"COC(=O)c1c(OC)nc(C(F)(F)F)c(C2=NCCCS2)c1CC(C)C [Compound 98, 3-pyridinecarboxylic acid, 5-(5,6-dihydro-4H-1,3-thiazin-2-yl)-2-methoxy-4-(2-methylpropyl)-6-(trifluoromethyl)-, methyl ester]",0,0,1,3,,,,,
"COC(=O)c1c(OC)nc(C(F)(F)F)c(-c2nnc(C)o2)c1CC(C)C [Compound 103, 3-pyridinecarboxylic acid, 2-methoxy-5-(5-methy1-1,3,4-oxadiazo1-2-yl)-4-(2-methylpropyl)-6-(trifluoromethyl)-, methyl ester]",0,0,,2,1,,,,
"COC(=O)c1c(OC)nc(C(F)(F)F)c(C(=O)Cl)c1CC1CC1 [Compound 113, 3-pyridinecarboxylic acid, 5-(chlorocarbonyl)-4-(cyclopropylmethyl)-2-methoxy-6-(trifluoromethyl)-, methyl ester]",,0,0,1,,0,0,,
"COC(=O)c1c(OC)nc(C(F)(F)F)c(C(=O)n2cccn2)c1CC1CC1 [Compound 116, 3-pyridinecarboxylic acid, 4-(cyclopropylmethyl)-2-methoxy-5-(1H-pyrazo1-1-ylcarbonyl)-6-(trifluoromethyl)-, methyl ester]",1,1,2,2,,1,2,0,2
"COC(=O)c1c(OC)nc(C(F)(F)F)c(C(=O)SC)c1C1CCC1 [Compound 137, 3-pyridinecarboxylic acid, 4-cyclobuty1-2-methoxy-5-[(methylthio)carbonyl]-6-(trifluoromethyl)-, methyl ester]",,0,3,2,,2,3,,3
"COC(=O)c1c(OC)nc(C(F)(F)F)c(C(=O)n2ccc(F)n2)c1C1CCC1 [Compound 140, 3-pyridinecarboxylic acid, 4-cyclobuty1-5-[(3-fluoro-1H-pyrazo1-1-yl)carbonyl]-2-methoxy-6-(trifluoromethyl)-, methyl ester]",,0,,1,,2,3,,2
